Target: T1, Recombinant human HSD17B13 enzyme (Homo sapiens, UniProt Q7Z5P4)
T1 sequence (Q7Z5P4 20-300): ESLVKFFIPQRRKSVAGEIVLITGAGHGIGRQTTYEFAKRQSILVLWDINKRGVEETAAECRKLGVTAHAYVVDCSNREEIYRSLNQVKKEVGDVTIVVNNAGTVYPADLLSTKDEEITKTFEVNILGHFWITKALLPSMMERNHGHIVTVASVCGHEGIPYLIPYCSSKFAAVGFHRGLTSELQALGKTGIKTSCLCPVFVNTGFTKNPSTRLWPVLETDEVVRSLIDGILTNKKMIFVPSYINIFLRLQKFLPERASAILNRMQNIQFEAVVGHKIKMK
Assay: HSD17b13 NAD(P)H-Glo biochemical assay
Details: for IC50: 50 uM estradiol, 1 mM NAD+, NAD(P)H-Glo luminescence, read-out: HSD17β13 IC50; for inhibition at 30 µM: at 30 uM compound, read-out: HSD17β13 % at 30 uM
Description: Example B-1: HSD17b13 NAD(P)H-Glo Biochemical Assay
Recombinant human HSD17B13 enzyme. Substrate: estradiol (Sigma β-Estradiol E8875), 100 mM in DMSO. Cofactor: NAD+ Grade I free acid (Sigma 10127965001), 20 mM in H2O. Assay buffer final concentration: 20 mM Tris pH7.4 with 0.002% Tween-20 and 0.02% BSA. Assay performed in 384 well solid bottom plate (Corning 3570). Enzymatic activity detected by NAD(P)H-Glo™ Detection System (Promega G9062).
Inhibitor compounds were serially diluted in DMSO and then further diluted in assay buffer to a 10× concentration consisting of 1% DMSO.
HSD17b13 enzyme was diluted in 1× assay buffer to the desired enzyme concentration based on the specific activity of the enzyme lot. 20 uL of diluted enzyme was added to each well along with 2.5 uL of 10× inhibitor solution. Assay plate was incubated at RT for 20 minutes, and then 2.5 uL of a 10× substrate/cofactor mix was added to each well for a final concentration of 50 uM estradiol and 1 mM NAD+. Assay plate was incubated at 37° C. for 3 hours. NAD(P)H-Glo™ Detection System reagents were prepared according to manufacturer's specifications, and 25 uL was added to each well. After incubating for 1 hour at RT, luminescence was measured.

| IC50 | Compound | other results |
| --- | --- | --- |
| 0.1 to 1 µM | Oc1cc2c(cnn2-c2ccc(-c3ccccc3F)cc2)cc1F [Compound 13.3, 5-Fluoro-1-(2′-fluoro-[1,1′-biphenyl]-4-yl)-1H-indazol-6-ol] | – |
| 0.1 to 1 µM | Oc1cc2c(cnn2-c2ccc(-c3cccc(F)c3)cc2)cc1F [Compound 13.4, 5-Fluoro-1-(3′-fluoro-[1,1′-biphenyl]-4-yl)-1H-indazol-6-ol] | – |
| 0.1 to 1 µM | Oc1cc2c(cnn2-c2ccc(-c3ccc(F)cc3)cc2)cc1F [Compound 13.5, 5-Fluoro-1-(4′-fluoro-[1,1′-biphenyl]-4-yl)-1H-indazol-6-ol] | – |
| 0.1 to 1 µM | Oc1cc2c(cnn2-c2ccc(-c3ccccc3Cl)cc2)cc1F [Compound 13.6, 1-(2′-Chloro-[1,1′-biphenyl]-4-yl)-5-fluoro-1H-indazol-6-ol] | – |
| 0.1 to 1 µM | Oc1cc2c(cnn2-c2ccc(-c3cccc(Cl)c3)cc2)cc1F [Compound 13.7, 1-(3′-Chloro-[1,1′-biphenyl]-4-yl)-5-fluoro-1H-indazol-6-ol] | – |
| 0.1 to 1 µM | Oc1cc2c(cnn2-c2ccc(-c3ccc(Cl)cc3)cc2)cc1F [Compound 13.8, 1-(4′-Chloro-[1,1′-biphenyl]-4-yl)-5-fluoro-1H-indazol-6-ol] | – |
| 0.1 to 1 µM | Cc1ccccc1-c1ccc(-n2ncc3cc(F)c(O)cc32)cc1 [Compound 13.9, 5-Fluoro-1-(2′-methyl-[1,1′-biphenyl]-4-yl)-1H-indazol-6-ol] | – |
| 0.1 to 1 µM | Cc1cccc(-c2ccc(-n3ncc4cc(F)c(O)cc43)cc2)c1 [Compound 13.10, 5-Fluoro-1-(3′-methyl-[1,1′-biphenyl]-4-yl)-1H-indazol-6-ol] | – |
| 0.1 to 1 µM | Cc1ccc(-c2ccc(-n3ncc4cc(F)c(O)cc43)cc2)cc1 [Compound 13.11, 5-Fluoro-1-(4′-methyl-[1,1′-biphenyl]-4-yl)-1H-indazol-6-ol] | – |
| < 0.1 µM | Oc1cccc(-c2ccc(-n3ncc4cc(F)c(O)c(F)c43)cc2)c1 [Compound 13.12, 5,7-Difluoro-1-(3′-hydroxy-[1,1′-biphenyl]-4-yl)-1H-indazol-6-ol] | – |
| 1 to 30 µM | Oc1cc2c(cnn2-c2ccc(-c3ccccn3)cc2)cc1F [Compound 13.13, 5-Fluoro-1-(4-(pyridin-2-yl)phenyl)-1H-indazol-6-ol] | – |
| – | Oc1cc2c(cnn2-c2ccc(-c3cccnc3)cc2)cc1F [Compound 13.14, 5-Fluoro-1-(4-(pyridin-3-yl)phenyl)-1H-indazol-6-ol] | inhibition at 30 µM (3 h): 40% |
| – | Oc1cc2c(cnn2-c2ccc(-c3ccncc3)cc2)cc1F [Compound 13.15, 5-Fluoro-1-(4-(pyridin-4-yl)phenyl)-1H-indazol-6-ol] | inhibition at 30 µM (3 h): 40% |
| 0.1 to 1 µM | N#Cc1ccccc1-c1ccc(-n2ncc3cc(F)c(O)cc32)cc1 [Compound 13.16, 4′-(5-Fluoro-6-hydroxy-1H-indazol-1-yl)-[1,1′-biphenyl]-2-carbonitrile] | – |
| 0.1 to 1 µM | N#Cc1cccc(-c2ccc(-n3ncc4cc(F)c(O)cc43)cc2)c1 [Compound 13.17, 4′-(5-Fluoro-6-hydroxy-1H-indazol-1-yl)-[1,1′-biphenyl]-3-carbonitrile] | – |
| < 0.1 µM | N#Cc1ccc(-c2ccc(-n3ncc4cc(F)c(O)cc43)cc2)cc1 [Compound 13.18, 4′-(5-Fluoro-6-hydroxy-1H-indazol-1-yl)-[1,1′-biphenyl]-4-carbonitrile] | – |
| < 0.1 µM | Oc1cc(-c2ccc(-n3ncc4cc(F)c(O)c(F)c43)cc2)ccc1Cl [Compound 13.19, 1-(4′-Chloro-3′-hydroxy-[1,1′-biphenyl]-4-yl)-5,7-difluoro-1H-indazol-6-ol] | – |

| IC50 | Compound | other results |
| --- | --- | --- |
| 0.1 to 1 µM | COc1cccc(-c2ccc(-n3ncc4cc(F)c(O)cc43)cc2)c1 [Compound 13.20, 5-Fluoro-1-(3′-methoxy-[1,1′-biphenyl]-4-yl)-1H-indazol-6-ol] | – |
| 0.1 to 1 µM | COc1ccc(-c2ccc(-n3ncc4cc(F)c(O)cc43)cc2)cc1 [Compound 13.21, 5-Fluoro-1-(4′-methoxy-[1,1′-biphenyl]-4-yl)-1H-indazol-6-ol] | – |
| 1 to 30 µM | OCc1cccc(-c2ccc(-n3ncc4cc(F)c(O)cc43)cc2)c1 [Compound 13.22, 5-Fluoro-1-(3′-(hydroxymethyl)-[1,1′-biphenyl]-4-yl)-1H-indazol-6-ol] | – |
| 0.1 to 1 µM | OCc1ccc(-c2ccc(-n3ncc4cc(F)c(O)cc43)cc2)cc1 [Compound 13.23, 5-Fluoro-1-(4′-(hydroxymethyl)-[1,1′-biphenyl]-4-yl)-1H-indazol-6-ol] | – |
| 1 to 30 µM | CS(=O)(=O)c1ccccc1-c1ccc(-n2ncc3cc(F)c(O)cc32)cc1 [Compound 13.24, 5-Fluoro-1-(2′-(methylsulfonyl)-[1,1′-biphenyl]-4-yl)-1H-indazol-6-ol] | – |
| 0.1 to 1 µM | CS(=O)(=O)c1cccc(-c2ccc(-n3ncc4cc(F)c(O)cc43)cc2)c1 [Compound 13.25, 5-Fluoro-1-(3′-(methylsulfonyl)-[1,1′-biphenyl]-4-yl)-1H-indazol-6-ol] | – |
| 0.1 to 1 µM | CS(=O)(=O)c1ccc(-c2ccc(-n3ncc4cc(F)c(O)cc43)cc2)cc1 [Compound 13.26, 5-Fluoro-1-(4′-(methylsulfonyl)-[1,1′-biphenyl]-4-yl)-1H-indazol-6-ol] | – |
| 1 to 30 µM | Nc1cccc(-c2ccc(-n3ncc4cc(F)c(O)cc43)cc2)c1 [Compound 13.27, 1-(3′-Amino-[1,1′-biphenyl]-4-yl)-5-fluoro-1H-indazol-6-ol] | – |
| 0.1 to 1 µM | Nc1ccc(-c2ccc(-n3ncc4cc(F)c(O)cc43)cc2)cc1 [Compound 13.28, 1-(4′-Amino-[1,1′-biphenyl]-4-yl)-5-fluoro-1H-indazol-6-ol] | – |
| 1 to 30 µM | O=C(O)c1cccc(-c2ccc(-n3ncc4cc(F)c(O)cc43)cc2)c1 [Compound 13.29, 4′-(5-Fluoro-6-hydroxy-1H-indazol-1-yl)-[1,1′-biphenyl]-3-carboxylic acid] | – |
| 1 to 30 µM | O=C(O)c1ccc(-c2ccc(-n3ncc4cc(F)c(O)cc43)cc2)cc1 [Compound 13.30, 4′-(5-Fluoro-6-hydroxy-1H-indazol-1-yl)-[1,1′-biphenyl]-4-carboxylic acid] | – |
| 1 to 30 µM | CC(=O)Nc1cccc(-c2ccc(-n3ncc4cc(F)c(O)cc43)cc2)c1 [Compound 13.31, N-(4′-(5-Fluoro-6-hydroxy-1H-indazol-1-yl)-[1,1′-biphenyl]-3-yl)acetamide] | – |
| – | CC(=O)Nc1ccc(-c2ccc(-n3ncc4cc(F)c(O)cc43)cc2)cc1 [Compound 13.32, N-(4′-(5-Fluoro-6-hydroxy-1H-indazol-1-yl)-[1,1′-biphenyl]-4-yl)acetamide] | inhibition at 100 µM (3 h, at 100 uM compound, read-out: HSD17β13 % at 100 uM): 40% |
| 1 to 30 µM | CS(=O)(=O)Nc1cccc(-c2ccc(-n3ncc4cc(F)c(O)cc43)cc2)c1 [Compound 13.33, N-(4′-(5-Fluoro-6-hydroxy-1H-indazol-1-yl)-[1,1′-biphenyl]-3-yl)methanesulfonamide] | – |
| 0.1 to 1 µM | CS(=O)(=O)Nc1ccc(-c2ccc(-n3ncc4cc(F)c(O)cc43)cc2)cc1 [Compound 13.34, N-(4′-(5-Fluoro-6-hydroxy-1H-indazol-1-yl)-[1,1′-biphenyl]-4-yl)methanesulfonamide] | – |
| 0.1 to 1 µM | NC(=O)c1cccc(-c2ccc(-n3ncc4cc(F)c(O)cc43)cc2)c1 [Compound 13.35, 4′-(5-Fluoro-6-hydroxy-1H-indazol-1-yl)-[1,1′-biphenyl]-3-carboxamide] | – |
| 0.1 to 1 µM | NC(=O)c1ccc(-c2ccc(-n3ncc4cc(F)c(O)cc43)cc2)cc1 [Compound 13.36, 4′-(5-Fluoro-6-hydroxy-1H-indazol-1-yl)-[1,1′-biphenyl]-4-carboxamide] | – |

— patent US20240083853A1, “HSD17B13 INHIBITORS AND USES THEREOF” (FL2022-001, Inc., priority 2020, published 2024)
